Patent US20100092402A1, “TREATMENT OF RESPIRATORY DISEASE” (Mucokinetica Ltd., priority 2007, published 2010)

Tested on: amiloride-sensitive (sodium-dependent) component of nasal PD
Assay: Nasal PD measurement during perfusion of human nasal epithelium
Type: in vivo
Conditions: for average percent of maximum PD change in response to 10^−5 M-amiloride: 4 experiments, before perfusion 94% and 80%
Protocol: The method of measurement of nasal PD was an adaptation of that described by Standaert et al. (2004).
Ringer/HEPES buffer solution was prepared containing 148 mM-NaCl, 4.05 mM-KCl, 1.2 mM-CaCl2, 1.2 mM-MgCl2, 2.4 mM-K2HPO4, 0.4 mM-KH2PO4, 10 mM-HEPES, and adjusted to pH 7.4. Low chloride Ringer/HEPES buffer solution was prepared by replacing NaCl with 148 mM-Na gluconate in the Ringer solution components.
Agar electrodes were prepared with 3.7% agarose dissolved in Ringer/HEPES buffer pH 7.4. The reference electrode was placed and taped in contact with a small area on the forearm where the epidermis had been removed by gentle abrasion. A dual lumen nasal recording electrode was prepared using a lm length of soft plastic tubing 2.4 mm diameter, into which 1 mm diameter polythene tubing was inserted through the wall and along the lumen for 15 cm from one end. The 2.4 mm diameter tubing was filled with 3.7% agarose dissolved in Ringer/HEPES buffer pH 7.4. The 1 mm diameter tubing was used for perfusion of buffer solutions and drugs to the nasal epithelium. The ends of the agar electrodes were each placed in contact with a calomel half-cell in 3 M-KCl solution. Voltages were measured by connecting the calomel electrodes to a high impedance voltmeter (Keithley 617 programmable electrometer). Output from the voltmeter was recorded by connection to a Biopac MP100 data aquisition unit and PC running Acqknowledge III data acquisition software.
Nasal PD was recorded via the recording electrode placed in contact with the nasal epithelium approximately 4 cm inside the nostril. The nasal epithelium was perfused according to the following schedule and nasal PD was recorded continuously.
1. Ringer/HEPES buffer was perfused at 0.5 ml/min for 5 min, and starting baseline PD was recorded.
2. Perfusion was then switched to low chloride Ringer/HEPES buffer pH 7.4 for 30 min during which time initial hyperpolarisation of the epithelium occurred.
3. The nasal epithelium was then perfused with 10^−5 M-amiloride in low chloride Ringer/HEPES buffer pH 7.4 for 10 min. Measurement of the amiloride-sensitive (sodium-dependent) component of nasal PD was then made by measuring the difference between the average PD recorded over the 2 min before perfusion with amiloride and the average PD recorded in the period 4 to 6 min after perfusion with amiloride.
4. Amiloride was washed away from the nasal epithelium by perfusion with low chloride Ringer/HEPES buffer pH 7.4 for 30 min.
5. Steps 3 and 4 were then repeated twice more.
6. The nasal epithelium was then perfused with 3 μM 6-amidino-2-napthyl 4-guanidinobenzoate in low chloride Ringer/HEPES buffer pH 7.4 for 60 min.
7. Steps 3 and 4 were then repeated a further twice, followed by either a period of administration of amiloride (3 experiments), or a final repetition of both steps 3 and 4 (1 experiment).
Over the 5 h time course of each experiment nasal PD drifted and oscillated. […] Changes in nasal PD caused by perfusion of amiloride were calculated as the difference between the mean PD recorded in the 2 min period before perfusion with amiloride and the mean PD recorded in the plateau period 4 to 6 min after start of perfusion with amiloride. Within each experiment the change in nasal PD at each period of application of amiloride was expressed as a percentage of the maximum change observed in the experiment.

In the case of N=C(N)c1ccc2cc(OC(=O)c3ccc(N=C(N)N)cc3)ccc2c1 [6-amidino-2-napthyl 4-guanidinobenzoate], the “time following perfusion for which amiloride-sensitive component of nasal PD was reduced” value (3.10^−6 M in low chloride Ringer/HEPES buffer pH 7.4 for 60 min) is reported as “up to 80 min”, the “average percent of maximum PD change in response to 10^−5 M-amiloride” value (from here on “average percent of maximum PD change”) (40 min after perfusion of 3.10^−6 M for 60 min) is reported as 29% and the “average percent of maximum PD change” value (80 min after perfusion of 3.10^−6 M for 60 min) is reported as 55%. For the same compound, the “average percent of maximum PD change” value (immediately following 60 min perfusion of 3.10^−6 M) was 49%.
